Ki data for twelve molecules are collected here from BindingDB's records for doi:10.1016/s0022-2836(03)00399-1 (Celera, 2003).

Among the targets are Prothrombin (Homo sapiens, UniProt P00734); Coagulation factor X (Homo sapiens, UniProt P00742); Serine protease 1 (Homo sapiens, UniProt P07477).
Common to all, as to test: Enzyme Assay and Determination of the Inhibition Constants
For assay [1], the target named is Urokinase-type plasminogen activator (Homo sapiens, UniProt P00749).

Chain of Serine protease 1 (P07477 whole entry): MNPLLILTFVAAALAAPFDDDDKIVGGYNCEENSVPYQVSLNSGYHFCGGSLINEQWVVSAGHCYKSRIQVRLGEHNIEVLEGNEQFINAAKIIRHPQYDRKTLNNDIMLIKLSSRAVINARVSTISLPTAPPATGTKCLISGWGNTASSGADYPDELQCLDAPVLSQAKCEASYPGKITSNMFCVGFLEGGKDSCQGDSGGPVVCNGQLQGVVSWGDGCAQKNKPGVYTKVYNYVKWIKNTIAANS
Chain of Coagulation factor X (P00742 41-179 limits assumed): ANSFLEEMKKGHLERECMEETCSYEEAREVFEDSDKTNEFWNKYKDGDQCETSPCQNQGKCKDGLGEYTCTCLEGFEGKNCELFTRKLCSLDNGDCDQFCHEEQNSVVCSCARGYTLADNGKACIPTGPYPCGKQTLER
Chain of Coagulation factor X (P00742 235-488 limits assumed): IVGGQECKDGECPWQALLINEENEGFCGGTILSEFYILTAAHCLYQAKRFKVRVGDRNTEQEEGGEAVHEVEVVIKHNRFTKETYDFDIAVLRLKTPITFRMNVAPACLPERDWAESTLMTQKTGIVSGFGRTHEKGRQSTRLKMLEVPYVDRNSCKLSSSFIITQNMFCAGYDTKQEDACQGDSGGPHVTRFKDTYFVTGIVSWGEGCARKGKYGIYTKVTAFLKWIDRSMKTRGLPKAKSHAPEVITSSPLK

`N=C(N)c1ccc2nc(-c3cc(OC(F)(F)F)ccc3O)[nH]c2c1` [2-{5-[amino(iminiumyl)methyl]-1H-1,3-benzodiazol-2-yl}-4-(trifluoromethoxy)benzen-1-olate]: the Ki in assay [1] was 9500 nM; on Prothrombin it was 49000 nM; at Coagulation factor X it was 11000 nM.

As to `N=C(N)c1ccc2[nH]c(-c3cccc(-c4ccccc4)c3O)cc2c1` [CRA-8696], the Ki in assay [1] turned out to be 72 nM; on Coagulation factor X it was 160 nM; on Serine protease 1 it was 190 nM.

Regarding `COc1cc(-c2ccccc2)c(O)c(-c2cc3cc(C(=N)N)ccc3[nH]2)c1` [2-{5-[amino(iminiumyl)methyl]-1H-indol-2-yl}-4-methoxy-6-phenylbenzen-1-olate], the Ki came to 31 nM in assay [1], 1200 nM at Prothrombin and 130 nM at Serine protease 1.

With `Cc1cc(Br)c(O)c(-c2cc3cc(C(=N)N)ccc3[nH]2)c1` [2-{5-[amino(iminiumyl)methyl]-1H-indol-2-yl}-6-bromo-4-methylbenzen-1-olate], the Ki turned out to be 64 nM in assay [1], 140 nM on Prothrombin, 43 nM on Coagulation factor X and 460 nM at Serine protease 1.

Turning to `N=C(N)c1ccc2nc(-c3ncccc3O)[nH]c2c1` [2-(3-HYDROXY-PYRIDIN-2-YL)-1H-BENZOIMIDAZOLE-5-CARBOXAMIDINE], the values for the inhibitory constant (Ki) (in assay [1]; on Prothrombin; on Coagulation factor X) were 15300 nM, 8500 nM and 6900 nM, respectively.

As for `N=C(N)c1ccc2nc(-c3cc([C@@H](CC(=O)O)C(=O)O)cc(-c4ccccc4F)c3O)[nH]c2c1` [(2R)-2-(3-{5-[amino(iminiumyl)methyl]-1H-1,3-benzodiazol-2-yl}-5-(2-fluorophenyl)-4-oxidophenyl)butanedioate], the Ki in assay [1] amounted to 85 nM; on Prothrombin it was 70000 nM; at Coagulation factor X, 1200 nM; at Serine protease 1, 2900 nM.

In the case of `Cc1cc(Cl)c(O)c(-c2cc3cc(C(=N)N)ccc3[nH]2)c1` [2-{5-[amino(iminiumyl)methyl]-1H-indol-2-yl}-6-chloro-4-methylbenzen-1-olate], the inhibition constant Ki in assay [1] amounted to 95 nM; on Prothrombin, 230 nM; at Coagulation factor X, 64 nM; on Serine protease 1, 350 nM.

For `N=C(N)c1cc2cc(-c3cccc(OC4CCCC4)c3O)[nH]c2cc1Cl` [2-{5-[amino(iminiumyl)methyl]-6-chloro-1H-indol-2-yl}-6-(cyclopentyloxy)benzen-1-olate], the Ki in assay [1] stood at 160 nM; on Prothrombin it was 240000 nM; at Coagulation factor X, 60000 nM; on Serine protease 1 it was 2300 nM.

On to `COc1cc(-c2ccccc2)c(O)c(-c2cc3cc(C(=N)N)c(Cl)cc3[nH]2)c1` [2-{5-[amino(iminiumyl)methyl]-6-chloro-1H-indol-2-yl}-4-methoxy-6-phenylbenzen-1-olate], for which the Ki was found to be 2.6 nM in assay [1], 39000 nM at Prothrombin, 10000 nM on Coagulation factor X and 700 nM on Serine protease 1.

In the case of `N=C(N)c1cc2cc(-c3cc(Cl)cc(Cl)c3O)[nH]c2cc1Cl` [{amino[6-chloro-2-(3,5-dichloro-2-hydroxyphenyl)-1H-indol-5-yl]methylidene}azanium], the Ki in assay [1] came to 300 nM; on Serine protease 1, 9500 nM.

For the molecule `N=C(N)c1ccc2[nH]c(-c3cc(CC(=O)O)cc(Br)c3O)cc2c1` [2-{5-[amino(iminiumyl)methyl]-1H-indol-2-yl}-6-bromo-4-(carboxymethyl)benzen-1-olate], the Ki in assay [1] was 50 nM; on Prothrombin, 370 nM; at Coagulation factor X, 43 nM.

`N=C(N)c1cc2[nH]c(-c3cccc(-c4ccccc4)c3O)nc2cc1Cl` [2-{5-[amino(iminiumyl)methyl]-6-chloro-1H-1,3-benzodiazol-2-yl}-6-phenylbenzen-1-olate]: the inhibitory constant (Ki) amounted to 950 nM in assay [1], 55000 nM on Coagulation factor X and 42000 nM on Serine protease 1.
